From patent US8669291B2, “Phenyl substituted cycloalkylamines as monoamine reuptake inhibitors” (Sunovion Pharmaceuticals Inc., priority 2007, dated 2014) come the findings set out here.

Structures are written as SMILES.

The test system of one assay is rats. The experiment in a line: Rat Locomotor Activity. Format: in vivo. Conditions: PO. How it is done: In order to ensure effects of the compounds on immobility time were not related to a general stimulant effect on baseline motor activity, locomotor activity was assessed using photocell monitored cages (Med-Associates Inc.). Each test chamber was equipped with infrared photocell beams to measure movement of the animals. Horizontal and vertical activity were measured.
Rats or mice were pretreated with vehicle or test compounds and placed back in home cage, following which they were individually placed in locomotor cages and activity was monitored in 1-5 minute intervals for intervals up to 60 min.
Data were analyzed by one way analysis of variance (ANOVA) followed by post-hoc comparisons where appropriate. An effect was considered significant if p<0.05. Data are represented as the mean and standard error to the mean (s.e.m).

Assay [1] deals with T1, Norepinephrine Transporter (NET) (Mus musculus, UniProt O55192).
T1 construct: Cortical membranes (400 μL; equivalent to 6.0 mg wet weight of tissue/tube); from tissue; host or cells: frontal cortex of C57BL/6 mice
As to the kind of experiment: ex vivo [3H] nisoxetine binding to NET sites in mouse brain. As to conditions: mice, 60 minutes after treatment. How it is done:
(§1) Receptor occupancy of central noradrenaline (NA), 5-HT and dopamine (DA) transporter sites following peripheral administration of compounds was determined using [^3H] nisoxetine, [^3H] citalopram and [^3H] WIN 35428 binding, respectively. Liquid scintillation counting was used to quantify the radioactivity.
(§2) C57BL/6 mice (25-30 g) were dosed orally with either vehicle or compound at 4 dose levels. Mice were sacrificed 60 minutes after treatment. Whole brains were removed and cortex and striata dissected out before being frozen on dry ice. The brain tissue was stored at −20° C. until the day of the assay. The cortex from each hemisphere was frozen separately. One was used to determine occupancy of NA transporter sites and the other occupancy of 5-HT transporter sites. Striatum was used to determine occupancy of DA transporter sites.
(§3) Frontal cortex from each hemisphere or striata was homogenized individually in ice-cold assay buffer using a tight fitting glass/Teflon homogenizer and used immediately in the binding assay.
Cortical membranes (400 μL; equivalent to 6.0 mg wet weight of tissue/tube) were incubated with 50 μL of [^3H] nisoxetine at a single concentration of 0.6 nM and either 50 μL of buffer (total binding) or 50 μL of mazindol (1 μM; non-specific binding) for 4 h at 4° C. For each animal, three tubes were used for the determination of total binding and three tubes were used for the determination of non-specific binding.
(§4) Membrane bound radioactivity was recovered by filtration under vacuum through Skatron 11731 filters, presoaked in 0.5% PEI, using a Skatron cell harvester. Filters were rapidly washed with ice-cold phosphate buffer and radioactivity (dpm) was determined by liquid scintillation counting (1 mL Packard MV Gold scintillator).
(§5) A value for specific binding (dpm) was generated by the subtraction of mean non-specific binding (dpm) from mean total binding (dpm) for each animal. Data are presented as mean specific binding (dpm) and as a percentage of the vehicle-treated control taken as 100%.

The target in a further assay is T2, 5-HT Transporter (SERT) (Mus musculus, UniProt Q60857).
T2 construct: Cortical membranes (400 μL; equivalent to 1.25 mg wet weight of tissue/tube); from tissue; host or cells: frontal cortex of C57BL/6 mice
As to the kind of experiment: ex vivo [3H] citalopram binding to SERT sites in mouse brain. Conditions: mice, 60 minutes after treatment. How it is done:
as §1, §2, §3
Cortical membranes (400 μL; equivalent to 1.25 mg wet weight of tissue/tube) were incubated with 50 μl of [^3H] citalopram at a single concentration of 1.3 nM and either 50 μl of buffer (total binding) or 50 μl of paroxetine (0.5 μM; non-specific binding) for 1 h at 27° C. For each animal, three tubes were used for the determination of total binding and three tubes were used for the determination of non-specific binding.
as §4, §5

Another assay deals with T3, DA Transporter (DAT) (Mus musculus, UniProt Q61327).
T3 construct: Striatal membranes (200 μL; equivalent to 2 mg wet weight of tissue/tube); from tissue; host or cells: striatum of C57BL/6 mice
The experiment in a line: ex vivo [3H] WIN 35428 binding to DAT sites in mouse brain. As to conditions: mice, 60 minutes after treatment. How it is done: as §1, §2, §3
Striatal membranes (200 μL; equivalent to 2 mg wet weight of tissue/tube) were incubated with 25 μL of [^3H] WIN 35428 at a single concentration of 24 nM and either 25 μL of buffer (total binding) or 25 μL of GBR12935 (1 μM; non-specific binding) for 2 h at 4° C. For each animal, two tubes were used for the determination of total binding and two tubes for the determination of non-specific binding.
as §4, §5

T1 sequence (O55192 whole entry): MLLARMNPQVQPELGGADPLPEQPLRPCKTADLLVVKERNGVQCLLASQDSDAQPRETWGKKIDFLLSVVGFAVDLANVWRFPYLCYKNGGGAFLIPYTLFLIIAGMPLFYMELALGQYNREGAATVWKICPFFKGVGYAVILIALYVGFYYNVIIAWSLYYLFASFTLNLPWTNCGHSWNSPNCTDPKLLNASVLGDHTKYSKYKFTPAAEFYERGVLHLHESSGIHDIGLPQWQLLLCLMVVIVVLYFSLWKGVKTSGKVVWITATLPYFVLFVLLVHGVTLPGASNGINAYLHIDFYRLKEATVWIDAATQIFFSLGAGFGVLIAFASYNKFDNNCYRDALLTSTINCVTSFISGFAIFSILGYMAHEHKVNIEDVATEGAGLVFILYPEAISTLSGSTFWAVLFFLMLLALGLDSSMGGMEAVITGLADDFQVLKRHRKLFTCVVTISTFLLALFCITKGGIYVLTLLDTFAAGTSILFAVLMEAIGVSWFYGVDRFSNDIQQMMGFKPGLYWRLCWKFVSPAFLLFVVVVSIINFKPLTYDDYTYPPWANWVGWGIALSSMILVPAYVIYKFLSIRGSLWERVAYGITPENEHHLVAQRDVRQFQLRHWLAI
T2 sequence (Q60857 whole entry): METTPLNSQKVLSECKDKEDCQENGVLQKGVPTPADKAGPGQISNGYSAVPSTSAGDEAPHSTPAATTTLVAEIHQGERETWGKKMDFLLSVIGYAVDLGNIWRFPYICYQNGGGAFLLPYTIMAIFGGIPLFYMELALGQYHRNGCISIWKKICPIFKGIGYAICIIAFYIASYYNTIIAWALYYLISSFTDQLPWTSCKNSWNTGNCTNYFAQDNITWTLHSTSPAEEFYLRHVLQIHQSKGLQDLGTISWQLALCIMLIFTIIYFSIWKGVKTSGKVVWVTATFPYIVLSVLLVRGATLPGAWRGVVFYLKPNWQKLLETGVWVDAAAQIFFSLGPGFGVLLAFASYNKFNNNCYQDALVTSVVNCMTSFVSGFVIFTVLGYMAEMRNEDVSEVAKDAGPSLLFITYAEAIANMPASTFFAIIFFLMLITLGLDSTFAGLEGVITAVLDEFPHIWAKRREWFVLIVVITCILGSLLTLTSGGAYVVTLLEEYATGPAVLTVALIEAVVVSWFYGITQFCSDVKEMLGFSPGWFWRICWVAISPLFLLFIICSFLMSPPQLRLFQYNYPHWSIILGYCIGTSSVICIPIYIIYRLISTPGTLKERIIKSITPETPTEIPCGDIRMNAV
T3 sequence (Q61327 whole entry): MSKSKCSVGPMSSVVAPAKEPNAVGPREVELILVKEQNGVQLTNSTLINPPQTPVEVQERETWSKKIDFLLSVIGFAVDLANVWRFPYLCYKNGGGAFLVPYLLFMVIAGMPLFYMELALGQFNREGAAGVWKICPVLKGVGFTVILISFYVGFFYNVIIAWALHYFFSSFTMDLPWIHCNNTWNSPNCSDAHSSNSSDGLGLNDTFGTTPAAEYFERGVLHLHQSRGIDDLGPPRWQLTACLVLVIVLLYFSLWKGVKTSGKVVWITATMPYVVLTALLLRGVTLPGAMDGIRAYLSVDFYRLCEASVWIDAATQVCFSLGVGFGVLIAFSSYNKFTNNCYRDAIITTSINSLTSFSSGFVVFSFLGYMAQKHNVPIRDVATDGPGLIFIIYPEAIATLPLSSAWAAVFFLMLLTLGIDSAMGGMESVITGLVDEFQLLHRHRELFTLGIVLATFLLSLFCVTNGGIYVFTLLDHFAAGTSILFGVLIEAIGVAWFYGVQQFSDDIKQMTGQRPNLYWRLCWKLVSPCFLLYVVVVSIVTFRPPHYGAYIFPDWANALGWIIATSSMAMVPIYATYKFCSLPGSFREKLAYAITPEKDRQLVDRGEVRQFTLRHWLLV

Take `CN(C)C[C@@H]1CCCC[C@@]1(O)c1ccc(Cl)c(Cl)c1` (single isomer, unassigned) [Compound 2, cis-1-(3,4-dichlorophenyl)-2-((dimethylamino)methyl)cyclohexanol]: the figures for the “Rat Locomotor Activity Total Distance Traveled ± S.E.M.” value with rats (1 mg/kg), in the assay on rats (3 mg/kg) and in the assay on rats (10 mg/kg) were “° (100-2500 (°))”, “° (100-2500 (°))” and “°°° (>5001 (°°°))”, respectively. Moreover, the “% Transporter Occupancy, NET” value in assay [1] (1 mg/kg PO) was 19%; in assay [1] (3 mg/kg PO), 44%; in assay [1] (10 mg/kg PO), 74%; in assay [1] (30 mg/kg PO) it was 89%. For the same molecule, the “% Transporter Occupancy, SERT” value at 5-HT Transporter (SERT) (1 mg/kg PO) is recorded as 11%; on 5-HT Transporter (SERT) (3 mg/kg PO), −1%; on 5-HT Transporter (SERT) (10 mg/kg PO), 6%; at 5-HT Transporter (SERT) (30 mg/kg PO), 5%. Further, the “% Transporter Occupancy, DAT” value on DA Transporter (DAT) (1 mg/kg PO) was 15%; on DA Transporter (DAT) (3 mg/kg PO), 50%; at DA Transporter (DAT) (10 mg/kg PO), 79%; on DA Transporter (DAT) (30 mg/kg PO), 90%.
